The target in this experiment is T1, Zcchc11 enzyme (Homo sapiens, UniProt Q5TAX3).
T1 construct: made in house; host or cells: HEK293 cells (Zcchc11); E. coli Rosetta II (LIN28A)
T1 sequence (Q5TAX3 212-1420): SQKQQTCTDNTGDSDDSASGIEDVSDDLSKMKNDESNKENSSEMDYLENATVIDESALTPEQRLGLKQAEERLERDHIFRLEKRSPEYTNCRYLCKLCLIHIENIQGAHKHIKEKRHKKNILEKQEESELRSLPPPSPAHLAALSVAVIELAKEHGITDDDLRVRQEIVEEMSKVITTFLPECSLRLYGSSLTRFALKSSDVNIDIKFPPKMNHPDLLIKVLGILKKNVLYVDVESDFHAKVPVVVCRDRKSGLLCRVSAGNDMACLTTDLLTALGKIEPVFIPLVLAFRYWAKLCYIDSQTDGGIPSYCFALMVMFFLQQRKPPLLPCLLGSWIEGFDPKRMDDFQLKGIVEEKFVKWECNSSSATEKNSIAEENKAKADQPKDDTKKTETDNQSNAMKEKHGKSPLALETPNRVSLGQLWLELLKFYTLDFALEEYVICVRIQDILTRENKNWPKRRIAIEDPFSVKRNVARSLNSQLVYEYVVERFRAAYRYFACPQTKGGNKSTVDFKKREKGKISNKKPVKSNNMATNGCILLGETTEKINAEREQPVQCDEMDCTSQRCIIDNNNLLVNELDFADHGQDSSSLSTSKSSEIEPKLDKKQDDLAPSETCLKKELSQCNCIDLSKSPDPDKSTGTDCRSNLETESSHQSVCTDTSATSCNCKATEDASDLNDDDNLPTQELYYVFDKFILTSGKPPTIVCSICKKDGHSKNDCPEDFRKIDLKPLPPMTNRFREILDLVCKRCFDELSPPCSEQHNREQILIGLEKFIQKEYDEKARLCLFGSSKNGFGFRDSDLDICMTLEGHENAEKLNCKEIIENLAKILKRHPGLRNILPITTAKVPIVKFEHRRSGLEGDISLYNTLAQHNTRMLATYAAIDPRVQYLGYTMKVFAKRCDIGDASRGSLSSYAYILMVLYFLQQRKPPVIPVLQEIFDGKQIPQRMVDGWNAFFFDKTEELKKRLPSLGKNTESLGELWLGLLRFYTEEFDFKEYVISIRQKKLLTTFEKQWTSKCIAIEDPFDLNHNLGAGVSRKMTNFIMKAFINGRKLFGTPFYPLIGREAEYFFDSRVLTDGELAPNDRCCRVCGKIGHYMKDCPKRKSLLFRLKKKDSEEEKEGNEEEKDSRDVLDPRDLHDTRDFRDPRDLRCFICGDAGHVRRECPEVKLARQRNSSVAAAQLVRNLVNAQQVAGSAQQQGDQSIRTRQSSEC
Description: TUTase assay (Zcchc11 assay, Lin28a-dependent polyuridylation of pre-let-7). It is filed as biochemical. The following applies: Lin28a-dependent Zcchc11 (Z11) TUTase assay; read-out: Potency Lin28a-dep Z11 IC50. The procedure, abridged:
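HEK293-expressed human Zcchc11 (residues 212-1420, 0.2 nM) with 10 nM LIN28A and 2 nM 5′-fluorescein pre-let-7, preincubated 30 min at room temperature, pH 7.3. Started with 5 uM UTP; poly(U) tails quenched by 3′-rhodamine A20 probe, read kinetically. IC50 from early-rate four-parameter fit; no-UTP wells define 0%.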
Broadly, the IC50 is the concentration needed to halve the response being measured. Take `CN1CCn2nc(-n3cc(C(=O)O)c(=O)c4cc(Cl)c(N5CCC[C@@H]5COc5ncccc5Cl)cc43)cc2C1` [Example 508, (R)-6-chloro-7-(2-(((3-chloropyridin-2-yl)oxy)methyl)pyrrolidin-1-yl)-1-(5-methyl-4,5,6,7-tetrahydropyrazolo [1,5-a]pyrazin-2-yl)-4-oxo-1,4-dihydroquinoline-3-carboxylic acid]: the IC50 was not above 1000 nM. With `Nc1ccc(-n2cc(C(=O)O)c(=O)c3cc(Br)c(N4CCC[C@@H]4COc4ncccc4Cl)cc32)cn1` [Example 509, 1-(6-aminopyridin-3-yl)-6-bromo-7-[(2R)-2-{[(3-chloropyridin-2-yl)oxy]methyl}pyrrolidin-1-yl]-4-oxo-1,4-dihydroquinoline-3-carboxylic acid], the IC50 is not above 1000 nM. The result for `CN(C)C1CN(c2ccc(-n3cc(C(=O)O)c(=O)c4cc(F)c(N5CCC[C@@H]5COc5ncccc5Cl)cc43)cn2)C1` [Example 510, (R)-7-(2-(((3-chloropyridin-2-yl)oxy)methyl)pyrrolidin-1-yl)-1-(6-(3-(dimethylamino)azetidin-1-yl)pyridin-3-yl)-6-fluoro-4-oxo-1,4-dihydroquinoline-3-carboxylic acid] reads not above 1000 nM. With `O=C(O)c1cn(-c2cnccn2)c2cc(N3CCC[C@@H]3COc3ncccc3Cl)c(Br)cc2c1=O` [Example 511, (R)-6-bromo-7-(2-(((3-chloropyridin-2-yl)oxy)methyl)pyrrolidin-1-yl)-4-oxo-1-(pyrazin-2-yl)-1,4-dihydroquinoline-3-carboxylic acid], the IC50 is not above 1000 nM. With `COc1cc2c(=O)c(C(=O)O)cn(-c3cnccn3)c2cc1N1CCC[C@@H]1COc1ncccc1Cl` [Example 512, (R)-7-(2-(((3-chloropyridin-2-yl)oxy)methyl)pyrrolidin-1-yl)-6-methoxy-4-oxo-1-(pyrazin-2-yl)-1,4-dihydroquinoline-3-carboxylic acid], the IC50 was more than 50000 nM. The result for `N#Cc1cc2c(=O)c(C(=O)O)cn(-c3ccc(N)nc3)c2cc1N1CCC[C@@H]1COc1ncccc1Cl` [Example 513, (R)-1-(6-aminopyridin-3-yl)-7-(2-(((3-chloropyridin-2-yl)oxy)methyl)pyrrolidin-1-yl)-6-cyano-4-oxo-1,4-dihydroquinoline-3-carboxylic acid] reads not above 1000 nM; that for `O=C(O)c1cn(-c2cnn3c2CNCC3)c2cc(N3CCC[C@@H]3COc3ncccc3Cl)c(Cl)cc2c1=O` [Example 514, (R)-6-chloro-7-(2-(((3-chloropyridin-2-yl)oxy)methyl)pyrrolidin-1-yl)-4-oxo-1-(4,5,6,7-tetrahydropyrazolo [1,5-a]pyrazin-3-yl)-1,4-dihydroquinoline-3-carboxylic acid], not above 1000 nM; that for `O=C(O)c1cn(-c2cc3n(n2)CCNC3)c2cc(N3CCC[C@@H]3COc3ncccc3Cl)c(Cl)cc2c1=O` [Example 515, (R)-6-chloro-7-(2-(((3-chloropyridin-2-yl)oxy)methyl)pyrrolidin-1-yl)-4-oxo-1-(4,5,6,7-tetrahydropyrazolo [1,5-a]pyrazin-2-yl)-1,4-dihydroquinoline-3-carboxylic acid], not above 1000 nM. In the case of `O=C(O)c1cn(-c2ccc(N3CCC3)nc2)c2cc(N3CCC[C@H]3COc3ncccc3Cl)c(Cl)cc2c1=O` [Example 516, (S)-1-(6-(azetidin-1-yl)pyridin-3-yl)-6-chloro-7-(2-(((3-chloropyridin-2-yl)oxy)methyl)pyrrolidin-1-yl)-4-oxo-1,4-dihydroquinoline-3-carboxylic acid], the IC50 was not above 1000 nM. The result for `CN(C)C1CN(c2ccc(-n3cc(C(=O)O)c(=O)c4cc(Cl)c(N5CCC[C@H]5COc5ncccc5Cl)cc43)cn2)C1` [Example 517, (S)-6-chloro-7-(2-(((3-chloropyridin-2-yl)oxy)methyl)pyrrolidin-1-yl)-1-(6-(3-(dimethylamino)azetidin-1-yl)pyridin-3-yl)-4-oxo-1,4-dihydroquinoline-3-carboxylic acid] reads not above 1000 nM; that for `Nc1ccc(-n2cc(C(=O)O)c(=O)c3cc(Cl)c(N4CCC[C@@H]4COc4ncccc4Cl)cc32)c(F)n1` [Example 518, (R)-1-(6-amino-2-fluoropyridin-3-yl)-6-chloro-7-(2-(((3-chloropyridin-2-yl)oxy)methyl)pyrrolidin-1-yl)-4-oxo-1,4-dihydroquinoline-3-carboxylic acid], not above 1000 nM; that for `O=C(O)c1cn(-c2cnccn2)c2cc(N3C[C@@H](F)C[C@H]3COc3ncccc3Cl)c(Cl)cc2c1=O` [Example 519, 6-chloro-7-((2S,4S)-2-(((3-chloropyridin-2-yl)oxy)methyl)-4-fluoropyrrolidin-1-yl)-4-oxo-1-(pyrazin-2-yl)-1,4-dihydroquinoline-3-carboxylic acid], not above 1000 nM. For `CN1CC2(C1)CN(c1ccc(-n3cc(C(=O)O)c(=O)c4cc(Cl)c(N5CCC[C@@H]5COc5ncccc5Cl)cc43)cn1)C2` [Example 520, (R)-6-chloro-7-(2-(((3-chloropyridin-2-yl)oxy)methyl)pyrrolidin-1-yl)-1-(6-(6-methyl-2,6-diazaspiro[3.3]heptan-2-yl)pyridin-3-yl)-4-oxo-1,4-dihydroquinoline-3-carboxylic acid], the concentration for half-maximal inhibition (IC50) was not above 1000 nM. Next, `CN(C)[C@H]1CCN(c2ccc(-n3cc(C(=O)O)c(=O)c4cc(Cl)c(N5CCC[C@@H]5COc5ncccc5Cl)cc43)cn2)C1` [Example 521, 6-chloro-7-((R)-2-(((3-chloropyridin-2-yl)oxy)methyl)pyrrolidin-1-yl)-1-(6-((S)-3-(dimethylamino)pyrrolidin-1-yl)pyridin-3-yl)-4-oxo-1,4-dihydroquinoline-3-carboxylic acid]: not above 1000 nM; `CN(C)[C@@H]1CCN(c2ccc(-n3cc(C(=O)O)c(=O)c4cc(Cl)c(N5CCC[C@@H]5COc5ncccc5Cl)cc43)cn2)C1` [Example 522, 6-chloro-7-((R)-2-(((3-chloropyridin-2-yl)oxy)methyl)pyrrolidin-1-yl)-1-(6-((R)-3-(dimethylamino)pyrrolidin-1-yl)pyridin-3-yl)-4-oxo-1,4-dihydroquinoline-3-carboxylic acid]: not above 1000 nM. Next, `CN1CC2CN(c3ccc(-n4cc(C(=O)O)c(=O)c5cc(Cl)c(N6CCC[C@@H]6COc6ncccc6Cl)cc54)cn3)CC2C1` (stereo partly drawn) [Example 523, 6-chloro-7-((R)-2-(((3-chloropyridin-2-yl)oxy)methyl)pyrrolidin-1-yl)-1-(6-(5-methylhexahydro-pyrrolo[3,4-c]pyrrol-2(1H)-yl)pyridin-3-yl)-4-oxo-1,4-dihydroquinoline-3-carboxylic acid]: not above 1000 nM; `COc1cc2c(=O)c(C(=O)O)cn(-c3ccc(N4CC(N(C)C)C4)nc3)c2cc1N1CCC[C@@H]1COc1ncccc1Cl` [Example 524, (R)-7-(2-(((3-chloropyridin-2-yl)oxy)methyl)pyrrolidin-1-yl)-1-(6-(3-(dimethylamino)azetidin-1-yl)pyridin-3-yl)-6-methoxy-4-oxo-1,4-dihydroquinoline-3-carboxylic acid]: 1000 to 10000 nM; `O=C(O)c1cn(-c2ccc(N3CCCC3=O)nc2)c2nc(N3CCC[C@@H]3COc3ncccc3Cl)c(Cl)cc2c1=O` [Example 525, (R)-6-chloro-7-(2-(((3-chloropyridin-2-yl)oxy)methyl)pyrrolidin-1-yl)-4-oxo-1-(6-(2-oxopyrrolidin-1-yl)pyridin-3-yl)-1,4-dihydro-1,8-naphthyridine-3-carboxylic acid]: not above 1000 nM. Next, `CN(C)C1CN(c2ccc(-n3cc(C(=O)O)c(=O)c4cc(Cl)c(N5CCC[C@@H]5COc5ncccc5F)cc43)cn2)C1` [Example 526, (R)-6-chloro-1-(6-(3-(dimethylamino)azetidin-1-yl)pyridin-3-yl)-7-(2-(((3-fluoropyridin-2-yl)oxy)methyl)pyrrolidin-1-yl)-4-oxo-1,4-dihydroquinoline-3-carboxylic acid]: not above 1000 nM.

(Values after patent US12662491B2 (Redona Therapeutics, Inc., priority 2020, dated 2026).)
